# Test results as given in patent US20210403485A1, “PYRAZOLOPYRIMIDINE DERIVATIVE AS SELECTIVE TRK INHIBITOR” (SHANDONG LUYE PHARMACEUTICAL CO., LTD., priority 2018, published 2021).
# pIC50: −log10 of the molar value.
# What was measured:
# [1] = Animal body weight and general observations, Ba/F3 ETV6-NTRK3-G623R tumor-bearing nude mice
# Procedure: (§4) The mice in groups were intragastrically administrated on the next day, and the animal body weight and the long and short diameters of the tumor were measured once every other day.
# [2] = Pharmacokinetic test of compounds in mice (plasma, LC/MS/MS); type: in vivo, male CD-1 mice; conditions: for Vd: read-out: Apparent volume of distribution Vd; for AUC(0-t): read-out: Area under the curve AUC0-last; for half-life: read-out: Half-life T1/2 (converted); for Cmax: read-out: Peak concentration Cmax; for Tmax: read-out: Time to peak Tmax
# Procedure: (§1) Experimental purpose: male CD-1 mice aged 7-9 weeks were selected as test animals, and the drug concentrations of the compounds in plasma at different time points after single intravenous injection (IV) and intragastric administration (PO) of the compounds were measured by an LC/MS/MS method, so that the pharmacokinetic behavior of the compounds disclosed herein in mice was studied, and the pharmacokinetic characteristic of the compounds was evaluated.
# (§2) Drug preparation: the compounds were all prepared into clear solution by taking 5% DMSO+10% solutol+85% water as vehicle, and were used for administration in IV and PO groups. The dose of each compound administered was: IV, 3 mg/kg; PO, 10 mg/kg.
# ALK = biological target: T1, ALK (Homo sapiens, UniProt Q9UM73); assay: Kinase inhibitory activity (33P-ATP, filtration-binding method, Reaction Biology Corp.); type: biochemical; conditions: read-out: Half maximal inhibitory concentration IC50 for kinases, ALK
# T1 construct: purchased Reaction Biology Corp
# T1 sequence (Q9UM73 19-1620): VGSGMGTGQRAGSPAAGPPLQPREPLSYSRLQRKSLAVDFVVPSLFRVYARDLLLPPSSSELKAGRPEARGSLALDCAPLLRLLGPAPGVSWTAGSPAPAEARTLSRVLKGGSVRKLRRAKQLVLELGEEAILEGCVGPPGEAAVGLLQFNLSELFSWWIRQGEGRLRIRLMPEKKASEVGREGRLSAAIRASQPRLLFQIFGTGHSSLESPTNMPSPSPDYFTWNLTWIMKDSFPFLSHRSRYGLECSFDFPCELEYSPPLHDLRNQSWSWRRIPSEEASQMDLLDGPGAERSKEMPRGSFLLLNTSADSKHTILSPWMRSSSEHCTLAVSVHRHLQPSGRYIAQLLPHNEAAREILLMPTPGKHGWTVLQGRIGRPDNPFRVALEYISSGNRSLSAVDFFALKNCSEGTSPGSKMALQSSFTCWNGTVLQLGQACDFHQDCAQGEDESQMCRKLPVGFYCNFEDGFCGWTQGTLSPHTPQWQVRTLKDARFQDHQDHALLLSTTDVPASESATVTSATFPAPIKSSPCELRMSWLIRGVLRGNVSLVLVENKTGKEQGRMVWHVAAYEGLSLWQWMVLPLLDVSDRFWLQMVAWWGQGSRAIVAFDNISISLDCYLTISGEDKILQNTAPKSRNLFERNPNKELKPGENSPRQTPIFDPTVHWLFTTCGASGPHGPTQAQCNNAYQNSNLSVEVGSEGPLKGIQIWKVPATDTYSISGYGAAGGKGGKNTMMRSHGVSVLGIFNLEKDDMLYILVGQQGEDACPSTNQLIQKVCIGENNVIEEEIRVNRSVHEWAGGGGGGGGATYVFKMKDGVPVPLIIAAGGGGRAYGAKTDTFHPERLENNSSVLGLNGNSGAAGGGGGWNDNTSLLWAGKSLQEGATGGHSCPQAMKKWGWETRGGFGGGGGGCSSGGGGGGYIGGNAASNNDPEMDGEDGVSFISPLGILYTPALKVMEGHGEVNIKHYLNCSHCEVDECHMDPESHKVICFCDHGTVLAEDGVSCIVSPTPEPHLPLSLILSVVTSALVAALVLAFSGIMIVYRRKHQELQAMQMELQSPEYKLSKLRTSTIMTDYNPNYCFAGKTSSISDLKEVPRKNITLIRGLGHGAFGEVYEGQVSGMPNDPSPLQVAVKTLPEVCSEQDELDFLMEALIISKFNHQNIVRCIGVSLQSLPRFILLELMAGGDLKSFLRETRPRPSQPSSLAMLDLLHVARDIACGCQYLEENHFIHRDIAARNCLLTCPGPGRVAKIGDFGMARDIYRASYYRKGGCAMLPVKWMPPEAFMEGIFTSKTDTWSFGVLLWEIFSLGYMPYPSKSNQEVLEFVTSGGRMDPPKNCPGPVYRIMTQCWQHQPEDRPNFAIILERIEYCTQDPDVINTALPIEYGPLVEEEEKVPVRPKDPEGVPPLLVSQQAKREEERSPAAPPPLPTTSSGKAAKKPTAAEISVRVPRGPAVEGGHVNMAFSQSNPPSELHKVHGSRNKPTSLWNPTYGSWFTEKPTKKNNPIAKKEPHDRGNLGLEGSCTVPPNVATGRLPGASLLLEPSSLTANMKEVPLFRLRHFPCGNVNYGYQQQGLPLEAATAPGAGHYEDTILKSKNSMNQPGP
# Procedure: The mixture was incubated at room temperature for 20 minutes, added with ^33P-ATP at a certain concentration to start the reaction, and then incubated at room temperature for 120 minutes. Finally, the radioactivity of the reactant was detected by the filtration-binding method. The final kinase activity was expressed as the ratio of the remaining kinase activity in the test sample to the kinase activity of the DMSO control. The dose-response curves were fitted and IC50 values were calculated by GraphPad software.
# [3] = Animal body weight and general observations, Ba/F3 ETV6-NTRK3 tumor-bearing nude mice
# Procedure: as §4
# [4] = Pharmacokinetic test of compounds in rats (plasma, LC/MS/MS); type: in vivo, male SD rats; conditions: for AUC(0-t): read-out: Area under the curve AUC0-last
# Procedure: as §1, with “SD rats” for “CD-1 mice”, “rats” for “mice”
# as §2
# BaF3 ETV6-NTRK3-WT = biological target: T2, BaF3 ETV6-NTRK3-WT (Homo sapiens, UniProt Q16288); assay: Inhibitory activity against cell proliferation (CellTiter-Glo, 72 hours); type: cell-based; conditions: read-out: Half maximal inhibitory concentration IC50 of cells, BaF3 ETV6-NTRK3-WT
# T2 construct: fused on or other part: N-terminal part of ETV6 (TEL) as fusion partner (part of the key); P41212 (Transcription factor ETV6)
# T2 sequence (Q16288 whole entry, stated change not applied, the tested form may be a part): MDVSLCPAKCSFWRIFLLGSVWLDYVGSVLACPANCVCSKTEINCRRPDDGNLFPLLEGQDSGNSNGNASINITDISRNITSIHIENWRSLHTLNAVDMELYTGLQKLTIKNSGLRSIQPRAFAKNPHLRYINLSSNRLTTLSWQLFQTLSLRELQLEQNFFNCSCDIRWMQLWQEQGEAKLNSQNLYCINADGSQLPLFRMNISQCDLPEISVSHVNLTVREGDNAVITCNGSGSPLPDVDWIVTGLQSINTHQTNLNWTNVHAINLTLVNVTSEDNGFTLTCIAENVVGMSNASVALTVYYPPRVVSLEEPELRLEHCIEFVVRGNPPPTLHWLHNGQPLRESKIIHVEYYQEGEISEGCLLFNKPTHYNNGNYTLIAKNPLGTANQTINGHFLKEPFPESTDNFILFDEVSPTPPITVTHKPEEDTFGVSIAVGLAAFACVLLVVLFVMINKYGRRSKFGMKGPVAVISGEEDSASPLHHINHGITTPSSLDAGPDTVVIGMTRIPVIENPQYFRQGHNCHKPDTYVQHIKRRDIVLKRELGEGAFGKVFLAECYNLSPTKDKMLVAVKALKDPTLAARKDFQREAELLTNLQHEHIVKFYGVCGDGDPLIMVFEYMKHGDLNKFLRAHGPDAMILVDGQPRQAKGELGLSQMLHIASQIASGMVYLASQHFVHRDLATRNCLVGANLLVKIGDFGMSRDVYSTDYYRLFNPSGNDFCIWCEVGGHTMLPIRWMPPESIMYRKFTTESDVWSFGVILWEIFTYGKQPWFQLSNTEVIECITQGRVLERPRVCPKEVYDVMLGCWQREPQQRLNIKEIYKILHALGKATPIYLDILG
# Outline: (§3)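 Log-phase Ba/F3 cells (trypan blue viability above 90%) were treated in triplicate with a 9-point, 3-fold compound series. ATP-dependent luminescence was read after CellTiter-Glo addition, and IC50 values came from nonlinear sigmoidal dose-response fits.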
# BaF3 LMNA-NTRK1-G667A = biological target: T3, BaF3 LMNA-NTRK1-G667A (Homo sapiens, UniProt P04629, G667A, cells depend on it); assay: as above; type: cell-based; conditions: read-out: Half maximal inhibitory concentration IC50 of cells, BaF3 LMNA-NTRK1-G667A
# T3 construct: fused on or other part: N-terminal part of LMNA as fusion partner (part of the key); P02545 (Prelamin-A/C)
# T3 sequence (P04629 whole entry G667A, the tested form may be a part): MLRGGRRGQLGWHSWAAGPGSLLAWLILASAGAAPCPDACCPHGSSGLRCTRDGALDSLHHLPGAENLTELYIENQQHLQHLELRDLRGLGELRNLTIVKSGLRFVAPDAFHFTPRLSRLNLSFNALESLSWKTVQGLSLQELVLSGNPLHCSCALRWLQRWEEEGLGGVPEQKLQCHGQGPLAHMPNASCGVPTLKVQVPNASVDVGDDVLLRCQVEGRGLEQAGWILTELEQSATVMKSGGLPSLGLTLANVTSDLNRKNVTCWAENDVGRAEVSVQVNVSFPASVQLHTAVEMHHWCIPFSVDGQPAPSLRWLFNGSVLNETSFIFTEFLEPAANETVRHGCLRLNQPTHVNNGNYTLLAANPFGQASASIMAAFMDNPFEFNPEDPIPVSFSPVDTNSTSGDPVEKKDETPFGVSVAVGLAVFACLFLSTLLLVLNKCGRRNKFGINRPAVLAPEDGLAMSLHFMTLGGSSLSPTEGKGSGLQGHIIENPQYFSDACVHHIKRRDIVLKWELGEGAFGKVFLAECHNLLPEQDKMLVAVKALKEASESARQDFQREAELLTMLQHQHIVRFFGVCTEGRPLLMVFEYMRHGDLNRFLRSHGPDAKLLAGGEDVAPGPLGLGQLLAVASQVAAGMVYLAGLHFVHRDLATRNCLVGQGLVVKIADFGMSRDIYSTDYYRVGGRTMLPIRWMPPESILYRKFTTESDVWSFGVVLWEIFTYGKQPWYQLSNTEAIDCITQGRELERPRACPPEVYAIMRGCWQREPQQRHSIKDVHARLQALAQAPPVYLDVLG
# Outline: as §3
# Ba/F3 LMNA-NTRK1-WT = biological target: T4, Ba/F3 LMNA-NTRK1-WT (Homo sapiens, UniProt P04629); assay: as above; type: cell-based; conditions: read-out: Half maximal inhibitory concentration IC50 of cells, Ba/F3 LMNA-NTRK1-WT
# T4 construct: fused on or other part: N-terminal part of LMNA as fusion partner (part of the key); P02545 (Prelamin-A/C)
# T4 sequence (P04629 whole entry, change not shown, the tested form may be a part): as the sequence (P04629 whole entry G667A, the tested form may be a part) above, with A667G counted along it
# Outline: as §3
# BaF3 LMNA-NTRK1-G595R = biological target: T5, BaF3 LMNA-NTRK1-G595R (Homo sapiens, UniProt P04629, G595R, cells depend on it); assay: as above; type: cell-based; conditions: read-out: Half maximal inhibitory concentration IC50 of cells, BaF3 LMNA-NTRK1-G595R
# T5 construct: fused on or other part: N-terminal part of LMNA as fusion partner (part of the key); P02545 (Prelamin-A/C)
# T5 sequence (P04629 whole entry G595R, the tested form may be a part): as the sequence (P04629 whole entry G667A, the tested form may be a part) above, with G595R, A667G counted along it
# Outline: as §3
# Ba/F3 LMNA-NTRK1-F589L = biological target: T6, Ba/F3 LMNA-NTRK1-F589L (Homo sapiens, UniProt P04629, F589L, cells depend on it); assay: as above; type: cell-based; conditions: read-out: Half maximal inhibitory concentration IC50 of cells, Ba/F3 LMNA-NTRK1-F589L
# T6 construct: fused on or other part: N-terminal part of LMNA as fusion partner (part of the key); P02545 (Prelamin-A/C)
# T6 sequence (P04629 whole entry F589L, the tested form may be a part): as the sequence (P04629 whole entry G667A, the tested form may be a part) above, with F589L, A667G counted along it
# Outline: as §3
# [5] = male, CD-1, mouse, plasma, IV, 3 mg/kg
# [6] = male, CD-1, mouse, plasma, PO, 10 mg/kg
structure (smiles),measurement,setting,value
"O=C(Nc1cnn2ccc(N3CCC[C@@H]3c3cc(F)ccc3F)nc12)N1CC[C@H](O)C1 [LOXO-101, larotrectinib, reference compound]",Rate of change in body weight (%) of day 11 to day 0,[1]; 60 mg/kg qd,6.8%
same,Body weight,"[1]; Day 0, 60 mg/kg qd",23.9 ± 1.4 g
same,Body weight,"[1]; Day 3, 60 mg/kg qd",24.2 ± 1.8 g
same,Body weight,"[1]; Day 5, 60 mg/kg qd",24.1 ± 2.0 g
same,Body weight,"[1]; Day 7, 60 mg/kg qd",25.0 ± 2.2 g
same,Body weight,"[1]; Day 9, 60 mg/kg qd",25.3 ± 2.2 g
same,Body weight,"[1]; Day 11, 60 mg/kg qd",25.6 ± 2.4 g
same,Apparent clearance Cl,"[2]; IV, 3 mg/kg",37.4 mL/min/kg
same,Vd,[2]; [5],0.97 L/kg
same,AUC(0-t),[2]; [5],3.12 µM·h
same,half-life,[2]; [5],23.4 min
same,AUC(0-t),[2]; [6],2.89 µM·h
same,bioavailability,"[2]; male, CD-1, mouse, plasma, PO, 10 mg/kg, read-out: Bioavailability F %",28%
same,Cmax,[2]; [6],1550 nM
same,Tmax,[2]; [6],22.8 min
same,pIC50,ALK,< 6.00
same,Rate of change in body weight (%) of day 11 to day 0,[3]; 60 mg/kg qd,4.4%
same,Body weight,"[3]; Day 0, 60 mg/kg qd",23.8 ± 1.6 g
same,Body weight,"[3]; Day 3, 60 mg/kg qd",22.9 ± 2.0 g
same,Body weight,"[3]; Day 5, 60 mg/kg qd",23.6 ± 2.2 g
same,Body weight,"[3]; Day 7, 60 mg/kg qd",23.9 ± 2.5 g
same,Body weight,"[3]; Day 9, 60 mg/kg qd",24.2 ± 2.2 g
same,Body weight,"[3]; Day 11, 60 mg/kg qd",24.7 ± 2.7 g
same,Apparent clearance Cl,"[4]; IV, 3 mg/kg",45.6 mL/min/kg
same,Vd,"[4]; male, SD, rat, plasma, IV, 3 mg/kg, read-out: Apparent volume of distribution Vd",1.7 L/kg
same,AUC(0-t),"[4]; male, SD, rat, plasma, IV, 3 mg/kg",1.7 µM·h
same,half-life,"[4]; male, SD, rat, plasma, IV, 3 mg/kg, read-out: Half-life T1/2 (converted)",36 min
same,AUC(0-t),"[4]; male, SD, rat, plasma, PO, 10 mg/kg",1.93 µM·h
same,bioavailability,"[4]; male, SD, rat, plasma, PO, 10 mg/kg, read-out: Bioavailability F %",23%
same,Cmax,"[4]; male, SD, rat, plasma, PO, 10 mg/kg, read-out: Peak concentration Cmax",944 nM
same,Tmax,"[4]; male, SD, rat, plasma, PO, 10 mg/kg, read-out: Time to peak Tmax",48 min
"C[C@@H]1CCc2ncc(F)cc2[C@H]2CCCN2c2ccn3ncc(c3n2)C(=O)N1 [LOXO-195, reference compound]",Rate of change in body weight (%) of day 11 to day 0,[1]; 100 mg/kg bid,2.1%
same,General observations,"[1]; 100 mg/kg bid, the 1# animal, possibly associated with the administration operation",developed thorax congestion at D8 and died at D10
same,Body weight,"[1]; Day 0, 100 mg/kg bid",23.5 ± 1.2 g
same,Body weight,"[1]; Day 3, 100 mg/kg bid",24.4 ± 1.1 g
same,Body weight,"[1]; Day 5, 100 mg/kg bid",24.4 ± 0.9 g
same,Body weight,"[1]; Day 7, 100 mg/kg bid",24.6 ± 0.9 g
same,Body weight,"[1]; Day 9, 100 mg/kg bid",24.4 ± 1.2 g
same,Body weight,"[1]; Day 11, 100 mg/kg bid",24.0 ± 1.7 g
same,Apparent clearance Cl,"[2]; IV, 3 mg/kg",11.8 mL/min/kg
same,Bioavailability F %,"[2]; PO, 10 mg/kg",74%
same,Vd,[2]; [5],0.5 L/kg
same,AUC(0-t),[2]; [5],11.1 µM·h
same,half-life,[2]; [5],71.4 min
same,AUC(0-t),[2]; [6],27.3 µM·h
same,Cmax,[2]; [6],12700 nM
same,Tmax,[2]; [6],22.8 min
same,pIC50,ALK,6.56
same,Rate of change in body weight (%) of day 11 to day 0,[3]; 100 mg/kg bid,4.9%
same,Body weight,"[3]; Day 0, 100 mg/kg bid",22.7 ± 2.7 g
same,Body weight,"[3]; Day 3, 100 mg/kg bid",24.4 ± 2.7 g
same,Body weight,"[3]; Day 5, 100 mg/kg bid",24.9 ± 2.6 g
same,Body weight,"[3]; Day 7, 100 mg/kg bid",25.1 ± 2.8 g
same,Body weight,"[3]; Day 9, 100 mg/kg bid",25.4 ± 3.0 g
same,Body weight,"[3]; Day 11, 100 mg/kg bid",25.2 ± 3.0 g
same,GI50,BaF3 ETV6-NTRK3-WT,2.6 nM
same,GI50,BaF3 LMNA-NTRK1-G667A,24.4 nM
same,GI50,Ba/F3 LMNA-NTRK1-WT,4.9 nM
same,GI50,BaF3 LMNA-NTRK1-G595R,6.8 nM
same,GI50,Ba/F3 LMNA-NTRK1-F589L,44 nM
